Data: ChEMBL document CHEMBL2169851, “Imidazopyridazinones as novel PDE7 inhibitors: SAR and in vivo studies in Parkinson's disease model” (Bioorg Med Chem Lett, 2012)
The source made the active and inactive calls. No cut-off for these calls is given here.

How the values were obtained:
[1] = Cmax in C57 mouse at 30 mg/kg, ip; assay type: ADME, organism-based; design: dose 30 mg/kg, route intraperitoneal; conditions: in vivo
[2] = tested on: Mus musculus; assay: Neurotoxicity in C57BL/6 mouse assessed as haloperidol-induced deffect in motor coordination at 3 mg/kg, ip administered 15 mins prior to haloperidol challenge measured at 0.5 to 1 hr post haloperidol challenge; assay type: toxicity, organism-based; design: dose 3 mg/kg, route intraperitoneal; conditions: in vivo
[3] = Metabolic stability in rat liver microsomes assessed as compound remaining after 60 mins; assay type: ADME, Microsome; conditions: read-out: Stability
[4] = tested on: Brain; assay: Free drug level in C57 mouse brain homogenate at 100 mg/kg, ip; assay type: ADME, organism-based; design: dose 100 mg/kg, route intraperitoneal; conditions: in vivo
[5] = molecular target: T1, High affinity 3',5'-cyclic-AMP phosphodiesterase 7A (Mus musculus, UniProt P70453); assay: Inhibition of mouse PDE7A assessed as [3H]cAMP hydrolysis after 5 to 15 mins by scintillation counter
T1 sequence (P70453 whole entry): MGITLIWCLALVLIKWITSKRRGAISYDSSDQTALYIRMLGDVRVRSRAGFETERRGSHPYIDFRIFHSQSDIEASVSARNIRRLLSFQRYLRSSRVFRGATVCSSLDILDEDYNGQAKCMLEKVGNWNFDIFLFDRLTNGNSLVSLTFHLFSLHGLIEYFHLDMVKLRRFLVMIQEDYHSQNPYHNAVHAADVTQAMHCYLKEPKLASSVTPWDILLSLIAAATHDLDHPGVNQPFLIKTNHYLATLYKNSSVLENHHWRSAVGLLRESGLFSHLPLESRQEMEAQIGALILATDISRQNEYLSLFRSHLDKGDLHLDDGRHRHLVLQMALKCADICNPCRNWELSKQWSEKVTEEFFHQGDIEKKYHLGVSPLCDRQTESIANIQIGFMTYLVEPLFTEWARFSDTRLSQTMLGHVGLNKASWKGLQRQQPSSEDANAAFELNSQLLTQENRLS

[6] = tested on: Brain; assay: Free drug level in C57 mouse brain homogenate at 1 uM by high throughput dialysis method; assay type: ADME, tissue-based; conditions: in vivo
[7] = molecular target: cGMP-dependent 3',5'-cyclic phosphodiesterase (Homo sapiens) (UniProt O00408); assay: Inhibition of cloned human recombinant PDE2A assessed as [3H]cAMP hydrolysis at 10 uM by radiometric assay
cGMP-dependent 3',5'-cyclic phosphodiesterase (Homo sapiens), sequence (O00408 whole entry): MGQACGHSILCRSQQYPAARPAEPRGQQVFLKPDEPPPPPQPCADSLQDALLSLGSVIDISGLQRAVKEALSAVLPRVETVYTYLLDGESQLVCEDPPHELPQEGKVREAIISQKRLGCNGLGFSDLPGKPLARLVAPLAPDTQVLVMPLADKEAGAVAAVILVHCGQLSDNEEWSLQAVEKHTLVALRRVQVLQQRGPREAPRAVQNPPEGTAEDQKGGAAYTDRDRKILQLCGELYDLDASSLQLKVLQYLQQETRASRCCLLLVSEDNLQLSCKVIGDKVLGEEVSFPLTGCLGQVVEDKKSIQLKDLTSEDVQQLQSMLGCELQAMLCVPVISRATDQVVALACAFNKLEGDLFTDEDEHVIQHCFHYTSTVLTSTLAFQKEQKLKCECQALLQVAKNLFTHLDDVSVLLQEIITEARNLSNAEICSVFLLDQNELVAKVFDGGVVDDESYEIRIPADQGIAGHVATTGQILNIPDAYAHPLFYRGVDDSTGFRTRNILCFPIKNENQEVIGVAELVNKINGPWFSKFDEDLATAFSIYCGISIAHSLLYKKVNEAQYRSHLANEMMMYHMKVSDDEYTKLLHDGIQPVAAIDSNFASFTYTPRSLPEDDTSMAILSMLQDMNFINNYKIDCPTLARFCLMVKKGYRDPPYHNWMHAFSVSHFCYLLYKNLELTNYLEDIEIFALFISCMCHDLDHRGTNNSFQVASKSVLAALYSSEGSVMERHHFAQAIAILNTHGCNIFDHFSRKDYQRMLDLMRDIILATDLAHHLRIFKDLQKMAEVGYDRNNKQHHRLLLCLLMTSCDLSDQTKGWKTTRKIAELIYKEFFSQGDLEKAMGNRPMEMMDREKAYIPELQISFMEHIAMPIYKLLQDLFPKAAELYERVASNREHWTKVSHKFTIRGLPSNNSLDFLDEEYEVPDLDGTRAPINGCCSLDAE

[8] = molecular target: T2, 3',5'-cyclic-AMP phosphodiesterase 4D (Homo sapiens, UniProt Q08499); assay: Inhibition of cloned human recombinant PDE4D assessed as [3H]cAMP hydrolysis by radiometric assay
T2 sequence (Q08499 whole entry): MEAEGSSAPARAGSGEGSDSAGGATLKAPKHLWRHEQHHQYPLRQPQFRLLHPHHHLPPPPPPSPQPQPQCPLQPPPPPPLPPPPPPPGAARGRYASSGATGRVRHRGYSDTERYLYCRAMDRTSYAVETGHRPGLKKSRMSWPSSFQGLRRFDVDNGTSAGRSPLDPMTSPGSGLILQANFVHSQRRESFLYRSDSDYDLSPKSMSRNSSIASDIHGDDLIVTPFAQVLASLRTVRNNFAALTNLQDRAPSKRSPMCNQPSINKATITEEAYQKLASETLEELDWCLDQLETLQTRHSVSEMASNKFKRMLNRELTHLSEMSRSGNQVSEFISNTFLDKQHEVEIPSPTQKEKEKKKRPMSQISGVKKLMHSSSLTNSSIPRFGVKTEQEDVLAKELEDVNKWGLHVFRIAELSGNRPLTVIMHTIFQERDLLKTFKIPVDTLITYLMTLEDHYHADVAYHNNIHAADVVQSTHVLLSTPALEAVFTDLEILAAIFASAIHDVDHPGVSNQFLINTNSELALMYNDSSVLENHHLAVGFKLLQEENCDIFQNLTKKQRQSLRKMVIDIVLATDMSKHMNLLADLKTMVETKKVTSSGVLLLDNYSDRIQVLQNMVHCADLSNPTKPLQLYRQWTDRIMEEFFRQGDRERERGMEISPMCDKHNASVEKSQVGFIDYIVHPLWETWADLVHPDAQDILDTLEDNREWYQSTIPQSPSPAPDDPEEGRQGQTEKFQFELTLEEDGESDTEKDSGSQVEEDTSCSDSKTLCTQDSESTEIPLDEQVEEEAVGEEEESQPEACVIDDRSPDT

[9] = Ratio of drug level in brain to plasma in C57 mouse at 10 mg/kg, ip after 30 mins; assay type: ADME, organism-based; design: dose 10 mg/kg, route intraperitoneal; conditions: read-out: BPR
[10] = Ratio of drug level in brain to plasma in C57 mouse at 30 mg/kg, ip after 30 mins; assay type: ADME, organism-based; design: dose 30 mg/kg, route intraperitoneal; conditions: read-out: BPR
[11] = Cmax in C57 mouse at 100 mg/kg, ip; assay type: ADME, organism-based; design: dose 100 mg/kg, route intraperitoneal; conditions: in vivo
[12] = Plasma concentration in C57 mouse at 10 mg/kg, ip after 30 mins; assay type: ADME, organism-based; design: dose 10 mg/kg, route intraperitoneal
[13] = Tmax in C57 mouse at 30 mg/kg, ip; assay type: ADME, organism-based; design: dose 30 mg/kg, route intraperitoneal; conditions: in vivo
[14] = AUC in C57 mouse at 100 mg/kg, ip; assay type: ADME, organism-based; design: dose 100 mg/kg, route intraperitoneal; conditions: plasma
[15] = Ratio of drug level in brain to plasma in C57 mouse at 100 mg/kg, ip after 30 mins; assay type: ADME, organism-based; design: dose 100 mg/kg, route intraperitoneal; conditions: read-out: BPR
[16] = Plasma concentration in C57 mouse at 30 mg/kg, ip after 30 mins; assay type: ADME, organism-based; design: dose 30 mg/kg, route intraperitoneal
[17] = Tmax in C57 mouse at 100 mg/kg, ip; assay type: ADME, organism-based; design: dose 100 mg/kg, route intraperitoneal; conditions: in vivo
[18] = molecular target: cAMP and cAMP-inhibited cGMP 3',5'-cyclic phosphodiesterase 10A (Homo sapiens) (UniProt Q9Y233); assay: Inhibition of cloned human recombinant PDE10A assessed as [3H]cAMP hydrolysis at 10 uM by radiometric assay
cAMP and cAMP-inhibited cGMP 3',5'-cyclic phosphodiesterase 10A (Homo sapiens), sequence (Q9Y233 whole entry): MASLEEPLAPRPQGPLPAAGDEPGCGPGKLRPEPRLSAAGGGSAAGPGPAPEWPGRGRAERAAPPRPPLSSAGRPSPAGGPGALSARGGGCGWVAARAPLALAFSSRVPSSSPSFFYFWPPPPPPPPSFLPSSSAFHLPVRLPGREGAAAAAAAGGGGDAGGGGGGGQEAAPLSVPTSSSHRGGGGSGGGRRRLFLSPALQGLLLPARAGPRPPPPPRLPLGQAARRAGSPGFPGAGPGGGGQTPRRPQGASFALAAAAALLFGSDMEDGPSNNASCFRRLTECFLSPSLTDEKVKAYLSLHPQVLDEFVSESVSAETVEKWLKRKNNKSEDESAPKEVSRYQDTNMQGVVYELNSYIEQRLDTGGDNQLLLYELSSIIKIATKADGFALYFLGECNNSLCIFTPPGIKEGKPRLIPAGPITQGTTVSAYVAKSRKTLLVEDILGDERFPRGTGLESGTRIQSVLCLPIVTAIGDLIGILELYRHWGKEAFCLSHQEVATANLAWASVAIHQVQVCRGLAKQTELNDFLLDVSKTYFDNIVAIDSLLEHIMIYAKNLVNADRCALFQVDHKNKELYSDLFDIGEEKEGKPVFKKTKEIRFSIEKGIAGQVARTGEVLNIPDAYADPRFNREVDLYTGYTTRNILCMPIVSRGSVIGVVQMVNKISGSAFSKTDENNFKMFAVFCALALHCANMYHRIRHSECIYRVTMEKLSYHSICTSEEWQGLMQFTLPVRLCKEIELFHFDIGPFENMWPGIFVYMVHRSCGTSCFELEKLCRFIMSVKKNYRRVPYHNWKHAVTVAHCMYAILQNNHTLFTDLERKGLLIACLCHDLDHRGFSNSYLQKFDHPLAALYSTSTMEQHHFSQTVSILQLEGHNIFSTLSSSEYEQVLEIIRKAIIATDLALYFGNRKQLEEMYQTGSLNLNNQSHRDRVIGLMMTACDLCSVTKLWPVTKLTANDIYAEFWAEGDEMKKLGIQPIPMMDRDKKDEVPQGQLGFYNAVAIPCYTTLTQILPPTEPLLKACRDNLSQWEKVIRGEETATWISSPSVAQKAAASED

[19] = Plasma concentration in C57 mouse at 100 mg/kg, ip after 30 mins; assay type: ADME, organism-based; design: dose 100 mg/kg, route intraperitoneal
[20] = molecular target: Dual specificity calcium/calmodulin-dependent 3',5'-cyclic nucleotide phosphodiesterase 1A (Homo sapiens) (UniProt P54750); assay: Inhibition of cloned human recombinant PDE1A assessed as [3H]cAMP hydrolysis at 10 uM by radiometric assay
Dual specificity calcium/calmodulin-dependent 3',5'-cyclic nucleotide phosphodiesterase 1A (Homo sapiens), sequence (P54750 whole entry): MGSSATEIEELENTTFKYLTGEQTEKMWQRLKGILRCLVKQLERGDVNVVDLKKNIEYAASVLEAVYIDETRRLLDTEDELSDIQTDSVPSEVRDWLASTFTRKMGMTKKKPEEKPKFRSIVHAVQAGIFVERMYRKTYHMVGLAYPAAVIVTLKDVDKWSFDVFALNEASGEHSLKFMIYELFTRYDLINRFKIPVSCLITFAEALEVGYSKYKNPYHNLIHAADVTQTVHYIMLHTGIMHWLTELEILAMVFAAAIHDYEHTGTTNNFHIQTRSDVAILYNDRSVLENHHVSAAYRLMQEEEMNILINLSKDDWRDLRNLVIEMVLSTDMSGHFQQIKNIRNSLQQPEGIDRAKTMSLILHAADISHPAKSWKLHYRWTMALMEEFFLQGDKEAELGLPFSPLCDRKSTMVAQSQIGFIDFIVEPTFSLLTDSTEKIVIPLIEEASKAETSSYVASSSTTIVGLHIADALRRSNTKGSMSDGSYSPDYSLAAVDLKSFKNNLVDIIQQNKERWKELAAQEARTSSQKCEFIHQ

[21] = tested on: Mus musculus; assay: Neurotoxicity in C57BL/6 mouse assessed as induction of catalepsy at 1 to 10 mg/kg, ip measured at 0.5 to 1 hr; assay type: toxicity, organism-based; design: route intraperitoneal; conditions: in vivo
[22] = tested on: Mus musculus; assay: Antiparkinsonian activity in C57BL/6 mouse assessed as decrease in MPTP-induced rearing behavior impairment at 30 mg/kg, ip administered 15 mins on day 7 post MPTP challenge; assay type: functional, organism-based; design: dose 30 mg/kg
[23] = organism: Homo sapiens; assay: Selectivity ratio of IC50 for cloned human recombinant PDE4D to IC50 for cloned human recombinant PDE7A
[24] = organism: Homo sapiens; assay: Selectivity ratio of IC50 for cloned human recombinant PDE4D to IC50 for cloned human recombinant PDE7B
[25] = molecular target: T2, 3',5'-cyclic-AMP phosphodiesterase 4D; assay: Inhibition of cloned human recombinant PDE4D assessed as [3H]cAMP hydrolysis at 10 uM by radiometric assay
[26] = AUC in C57 mouse at 30 mg/kg, ip; assay type: ADME, organism-based; design: dose 30 mg/kg, route intraperitoneal; conditions: plasma
[27] = tested on: Brain; assay: Free drug level in C57 mouse brain homogenate at 30 mg/kg, ip; assay type: ADME, organism-based; design: dose 30 mg/kg, route intraperitoneal; conditions: in vivo
[28] = Drug uptake in C57 mouse brain at 10 mg/kg, ip after 30 mins; assay type: ADME, organism-based; design: dose 10 mg/kg, route intraperitoneal; conditions: read-out: Drug uptake
[29] = molecular target: cGMP-specific 3',5'-cyclic phosphodiesterase (Homo sapiens) (UniProt O76074); assay: Inhibition of cloned human recombinant PDE5A assessed as [3H]cAMP hydrolysis at 10 uM by radiometric assay
[30] = AUC in C57 mouse at 10 mg/kg, ip; assay type: ADME, organism-based; design: dose 10 mg/kg, route intraperitoneal; conditions: plasma
[31] = Cmax in C57 mouse at 10 mg/kg, ip; assay type: ADME, organism-based; design: dose 10 mg/kg, route intraperitoneal; conditions: in vivo
[32] = molecular target: High affinity cAMP-specific and IBMX-insensitive 3',5'-cyclic phosphodiesterase 8A (Homo sapiens) (UniProt O60658); assay: Inhibition of cloned human recombinant PDE8A1 assessed as [3H]cAMP hydrolysis at 10 uM by radiometric assay
[33] = molecular target: 3',5'-cyclic-AMP phosphodiesterase 7B (Homo sapiens, UniProt Q9NP56); assay: Inhibition of cloned human recombinant PDE7B assessed as [3H]cAMP hydrolysis by radiometric assay
3',5'-cyclic-AMP phosphodiesterase 7B, sequence (Q9NP56 whole entry): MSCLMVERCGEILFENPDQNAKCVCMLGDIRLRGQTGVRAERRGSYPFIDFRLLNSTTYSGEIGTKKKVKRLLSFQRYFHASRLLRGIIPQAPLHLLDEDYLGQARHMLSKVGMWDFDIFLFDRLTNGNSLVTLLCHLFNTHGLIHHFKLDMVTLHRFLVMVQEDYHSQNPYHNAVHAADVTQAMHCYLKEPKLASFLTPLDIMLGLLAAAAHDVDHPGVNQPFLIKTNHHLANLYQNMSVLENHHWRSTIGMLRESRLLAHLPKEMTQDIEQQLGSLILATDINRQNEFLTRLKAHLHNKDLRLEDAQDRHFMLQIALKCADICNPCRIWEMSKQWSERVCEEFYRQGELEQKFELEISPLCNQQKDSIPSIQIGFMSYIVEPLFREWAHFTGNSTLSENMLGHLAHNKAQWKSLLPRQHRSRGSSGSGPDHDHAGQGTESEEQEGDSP

[34] = Drug uptake in C57 mouse brain at 100 mg/kg, ip after 30 mins; assay type: ADME, organism-based; design: dose 100 mg/kg, route intraperitoneal; conditions: read-out: Drug uptake
[35] = molecular target: High affinity 3',5'-cyclic-AMP phosphodiesterase 7A (Homo sapiens, UniProt Q13946); assay: Inhibition of cloned human recombinant PDE7A assessed as [3H]cAMP hydrolysis by radiometric assay
[36] = molecular target: High affinity cGMP-specific 3',5'-cyclic phosphodiesterase 9A (Homo sapiens) (UniProt O76083); assay: Inhibition of cloned human recombinant PDE9A2 assessed as [3H]cAMP hydrolysis at 10 uM by radiometric assay
[37] = Metabolic stability in human liver microsomes assessed as compound remaining after 60 mins; assay type: ADME, Microsome; conditions: read-out: Stability
[38] = tested on: Mus musculus; assay: Neurotoxicity in C57BL/6 mouse assessed as induction of catalepsy at 30 mg/kg, ip measured at 0.5 to 1 hr; assay type: toxicity, organism-based; design: dose 30 mg/kg, route intraperitoneal; conditions: in vivo
[39] = Metabolic stability in mouse liver microsomes assessed as compound remaining after 60 mins; assay type: ADME, Microsome; conditions: read-out: Stability
[40] = Tmax in C57 mouse at 10 mg/kg, ip; assay type: ADME, organism-based; design: dose 10 mg/kg, route intraperitoneal; conditions: in vivo
[41] = molecular target: Dual 3',5'-cyclic-AMP and -GMP phosphodiesterase 11A (Homo sapiens) (UniProt Q9HCR9); assay: Inhibition of cloned human recombinant PDE11A assessed as [3H]cAMP hydrolysis at 10 uM by radiometric assay
[42] = Drug uptake in C57 mouse brain at 30 mg/kg, ip after 30 mins; assay type: ADME, organism-based; design: dose 30 mg/kg, route intraperitoneal; conditions: read-out: Drug uptake
[43] = tested on: Mus musculus; assay: Neurotoxicity in C57BL/6 mouse assessed as potentiation of haloperidol-induced catalepsy at 1 to 10 mg/kg, ip administered 15 mins prior to haloperidol challenge measured at 0.5 to 1 hr post haloperidol challenge; assay type: toxicity, organism-based; design: route intraperitoneal; conditions: in vivo
[44] = molecular target: cGMP-inhibited 3',5'-cyclic phosphodiesterase 3A (Homo sapiens) (UniProt Q14432); assay: Inhibition of cloned human recombinant PDE3A assessed as [3H]cAMP hydrolysis at 10 uM by radiometric assay
cGMP-inhibited 3',5'-cyclic phosphodiesterase 3A (Homo sapiens), sequence (Q14432 whole entry): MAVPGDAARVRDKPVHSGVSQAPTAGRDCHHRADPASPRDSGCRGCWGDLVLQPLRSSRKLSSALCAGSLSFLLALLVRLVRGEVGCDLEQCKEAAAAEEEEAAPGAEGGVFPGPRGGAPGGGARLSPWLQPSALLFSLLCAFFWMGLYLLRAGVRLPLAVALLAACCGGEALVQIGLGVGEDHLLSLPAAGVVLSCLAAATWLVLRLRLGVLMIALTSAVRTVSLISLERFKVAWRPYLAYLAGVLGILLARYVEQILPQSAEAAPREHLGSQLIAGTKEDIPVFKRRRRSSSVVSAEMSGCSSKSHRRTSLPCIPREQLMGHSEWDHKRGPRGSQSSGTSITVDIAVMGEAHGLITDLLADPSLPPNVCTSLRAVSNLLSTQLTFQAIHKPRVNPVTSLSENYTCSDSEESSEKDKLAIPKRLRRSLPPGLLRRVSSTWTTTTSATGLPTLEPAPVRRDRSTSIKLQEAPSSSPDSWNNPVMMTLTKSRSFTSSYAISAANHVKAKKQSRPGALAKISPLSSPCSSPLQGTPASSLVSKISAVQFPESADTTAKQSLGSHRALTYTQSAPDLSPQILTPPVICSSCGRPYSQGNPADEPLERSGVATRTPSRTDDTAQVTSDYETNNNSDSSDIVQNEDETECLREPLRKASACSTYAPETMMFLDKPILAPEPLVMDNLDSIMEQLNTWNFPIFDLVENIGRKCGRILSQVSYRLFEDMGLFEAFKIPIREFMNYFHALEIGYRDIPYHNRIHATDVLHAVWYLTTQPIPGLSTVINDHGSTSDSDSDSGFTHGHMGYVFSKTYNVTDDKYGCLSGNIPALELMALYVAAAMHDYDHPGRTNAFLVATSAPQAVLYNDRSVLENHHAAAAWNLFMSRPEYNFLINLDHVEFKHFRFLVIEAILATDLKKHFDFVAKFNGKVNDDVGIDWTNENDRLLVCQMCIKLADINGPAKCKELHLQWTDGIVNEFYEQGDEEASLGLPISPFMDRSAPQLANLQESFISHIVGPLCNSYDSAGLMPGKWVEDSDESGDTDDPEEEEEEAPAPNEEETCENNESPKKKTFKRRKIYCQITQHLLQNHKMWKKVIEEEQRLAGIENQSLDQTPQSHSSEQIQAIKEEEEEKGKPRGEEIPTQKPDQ

[45] = tested on: Brain; assay: Free drug level in C57 mouse brain homogenate at 10 mg/kg, ip; assay type: ADME, organism-based; design: dose 10 mg/kg, route intraperitoneal; conditions: in vivo

COc1cc(N)ccc1-c1nc2c(C)nn(C3CCCCC3)c(=O)c2[nH]1
Cmax [1]: 6350 ng/mL | Activity [2]: Toxic | remaining at 1 h [3]: 68% | Drug uptake(free) [4]: 763 nM | IC50 [5]: 63 nM | Drug uptake(free) [6]: 0.2% | inhibition [7]: 29% | IC50 [8]: 6550 nM | Kp at 0.5 h [9]: 1.69 | Kp at 0.5 h [10]: 3.43 | Cmax [11]: 44200 ng/mL | concentration at 0.5 h [12]: 699 ng/mL | Tmax [13]: 15 min | AUC [14]: 168000 ng·h/mL | Kp at 0.5 h [15]: 3.05 | concentration at 0.5 h [16]: 4680 ng/mL | Tmax [17]: 30 min | inhibition [18]: 23% | concentration at 0.5 h [19]: 44200 ng/mL | inhibition [20]: 37% | Activity [21]: Non-toxic | Activity [22]: inactive | Ratio IC50 [23]: > 200 | Ratio IC50 [24]: > 150 | inhibition [25]: 86% | AUC [26]: 5020 ng·h/mL | Drug uptake(free) [27]: 91 nM | concentration at 0.5 h [28]: 1140 ng/g | inhibition [29]: 3% | AUC [30]: 792 ng·h/mL | Cmax [31]: 1480 ng/mL | inhibition [32]: 0% | IC50 [33]: 43 nM | concentration at 0.5 h [34]: 135000 ng/g | IC50 [35]: 31 nM | inhibition [36]: 9% | remaining at 1 h [37]: 43% | Activity [38]: Toxic | remaining at 1 h [39]: 4% | Tmax [40]: 15 min | inhibition [41]: 10% | concentration at 0.5 h [42]: 16000 ng/g | Activity [43]: Toxic | inhibition [44]: 6% | Drug uptake(free) [45]: 6 nM
